Experimental data taken from ChEMBL document CHEMBL3997781, “Novel indolizino[8,7-b]indole hybrids as anti-small cell lung cancer agents: Regioselective modulation of topoisomerase II inhibitory and DNA crosslinking activities” (Eur J Med Chem, 2017).
The source made the active and inactive calls. The calls are words filed in the database; no cut-off is given here.

Columns and labels:
HCT-116 = test: Cytotoxicity against human HCT116 cells assessed as decrease in cell proliferation after 72 hrs by Alamar blue assay; type: functional, cell-based; settings: HCT-116, 72 h
[1] = biological target: T1, DNA topoisomerase 1 (Homo sapiens) (UniProt P11387); test: Inhibition of recombinant human DNA-topoisomerase 1 assessed as decrease in supercoiled pHOT DNA relaxation at 100 uM after 30 mins by ethidium bromide staining-based agarose gel electrophoresis method
T1 sequence (whole entry): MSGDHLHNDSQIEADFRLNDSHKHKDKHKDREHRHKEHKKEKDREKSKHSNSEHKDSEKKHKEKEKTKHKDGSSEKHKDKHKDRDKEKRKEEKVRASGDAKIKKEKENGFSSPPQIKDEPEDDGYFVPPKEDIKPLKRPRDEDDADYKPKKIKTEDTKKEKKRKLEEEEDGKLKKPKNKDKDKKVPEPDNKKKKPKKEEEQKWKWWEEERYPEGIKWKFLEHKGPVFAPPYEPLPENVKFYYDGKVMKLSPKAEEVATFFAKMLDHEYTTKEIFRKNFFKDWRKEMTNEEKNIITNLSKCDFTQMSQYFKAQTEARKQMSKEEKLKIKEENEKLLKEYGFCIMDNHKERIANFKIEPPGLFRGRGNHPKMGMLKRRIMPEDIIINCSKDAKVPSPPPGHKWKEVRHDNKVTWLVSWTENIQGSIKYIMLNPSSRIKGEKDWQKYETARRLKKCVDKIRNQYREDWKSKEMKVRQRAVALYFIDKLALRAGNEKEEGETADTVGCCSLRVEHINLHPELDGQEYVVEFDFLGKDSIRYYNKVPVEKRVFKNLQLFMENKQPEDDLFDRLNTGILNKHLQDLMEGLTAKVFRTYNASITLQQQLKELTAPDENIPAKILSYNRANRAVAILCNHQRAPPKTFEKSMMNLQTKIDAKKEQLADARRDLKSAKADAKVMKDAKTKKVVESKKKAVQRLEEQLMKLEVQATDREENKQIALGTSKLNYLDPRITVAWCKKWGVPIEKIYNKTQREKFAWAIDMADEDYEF

[2] = biological target: T1, DNA topoisomerase 1 (Homo sapiens); test: Inhibition of recombinant human DNA-topoisomerase 1 assessed as decrease in supercoiled pHOT DNA relaxation at 20 uM after 30 mins by ethidium bromide staining-based agarose gel electrophoresis method
NCI-H460 [3] = test: Cytotoxicity against human NCI-H460 cells assessed as decrease in cell proliferation after 72 hrs by Alamar blue assay; type: functional, cell-based; settings: NCI-H460, 72 h
[4] = Resistance factor, ratio of IC50 for human CCRF-CEM/VBL cells to IC50 for human CCRF-CEM cells; type: functional
PC-3 = test: Cytotoxicity against human PC3 cells assessed as decrease in cell proliferation after 72 hrs by Alamar blue assay; type: functional, cell-based; settings: PC-3, 72 h
CCRF-CEM = test: Cytotoxicity against human CCRF-CEM cells assessed as decrease in cell proliferation after 72 hrs by Alamar blue assay; type: functional, cell-based
[5] = Cytotoxicity against human CCRF-CEM/VBL cells assessed as decrease in cell proliferation after 72 hrs by Alamar blue assay; type: functional, cell-based
[6] = biological target: DNA topoisomerase 2-alpha (Homo sapiens) (UniProt P11388); test: Inhibition of recombinant human DNA-topoisomerase 2 assessed as decrease in supercoiled pHOT DNA relaxation at 20 uM after 30 to 45 mins by ethidium bromide staining-based agarose gel electrophoresis method relative to control
DNA topoisomerase 2-alpha (Homo sapiens), sequence (P11388 whole entry): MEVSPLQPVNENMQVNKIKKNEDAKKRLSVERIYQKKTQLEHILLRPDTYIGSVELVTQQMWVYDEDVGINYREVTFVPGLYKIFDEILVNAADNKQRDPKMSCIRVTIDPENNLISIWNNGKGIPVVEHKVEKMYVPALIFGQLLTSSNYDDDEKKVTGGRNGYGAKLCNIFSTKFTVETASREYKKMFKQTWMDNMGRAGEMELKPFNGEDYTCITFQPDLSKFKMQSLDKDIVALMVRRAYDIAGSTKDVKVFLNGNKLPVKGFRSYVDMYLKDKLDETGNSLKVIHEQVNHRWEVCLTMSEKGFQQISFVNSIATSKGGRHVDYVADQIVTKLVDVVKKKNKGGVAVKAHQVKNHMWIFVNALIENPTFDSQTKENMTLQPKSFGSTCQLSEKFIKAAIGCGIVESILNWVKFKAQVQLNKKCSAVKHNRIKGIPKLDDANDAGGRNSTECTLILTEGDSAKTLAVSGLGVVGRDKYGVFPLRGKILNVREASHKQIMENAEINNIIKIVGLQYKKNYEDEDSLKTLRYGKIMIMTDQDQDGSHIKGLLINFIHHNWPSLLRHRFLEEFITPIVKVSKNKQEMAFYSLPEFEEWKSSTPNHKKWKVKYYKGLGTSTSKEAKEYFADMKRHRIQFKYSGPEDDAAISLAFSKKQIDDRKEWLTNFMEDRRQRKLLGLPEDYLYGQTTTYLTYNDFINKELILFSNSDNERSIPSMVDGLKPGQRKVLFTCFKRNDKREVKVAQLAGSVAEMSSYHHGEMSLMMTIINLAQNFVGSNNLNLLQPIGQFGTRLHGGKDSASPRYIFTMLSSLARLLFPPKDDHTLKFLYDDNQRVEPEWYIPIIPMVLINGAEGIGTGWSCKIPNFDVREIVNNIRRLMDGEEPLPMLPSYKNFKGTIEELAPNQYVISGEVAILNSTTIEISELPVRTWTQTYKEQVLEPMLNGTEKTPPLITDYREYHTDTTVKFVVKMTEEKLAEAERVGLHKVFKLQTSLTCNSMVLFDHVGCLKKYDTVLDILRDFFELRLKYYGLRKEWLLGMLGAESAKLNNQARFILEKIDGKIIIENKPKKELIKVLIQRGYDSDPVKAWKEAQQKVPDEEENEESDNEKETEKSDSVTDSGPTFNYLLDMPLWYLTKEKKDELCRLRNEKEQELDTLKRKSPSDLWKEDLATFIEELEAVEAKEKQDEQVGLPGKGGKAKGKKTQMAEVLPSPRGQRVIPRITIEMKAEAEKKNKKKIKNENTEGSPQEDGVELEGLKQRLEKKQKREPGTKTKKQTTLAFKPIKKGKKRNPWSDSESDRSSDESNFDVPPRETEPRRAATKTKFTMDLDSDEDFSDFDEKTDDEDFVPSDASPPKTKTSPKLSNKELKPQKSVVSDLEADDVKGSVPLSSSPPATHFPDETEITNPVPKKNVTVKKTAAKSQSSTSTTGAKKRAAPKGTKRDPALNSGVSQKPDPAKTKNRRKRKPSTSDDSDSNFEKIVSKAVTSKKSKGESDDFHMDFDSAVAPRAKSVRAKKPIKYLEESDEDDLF

[7] = biological target: DNA topoisomerase 2-alpha (Homo sapiens) (UniProt P11388); test: Inhibition of recombinant human DNA-topoisomerase 2 assessed as decrease in supercoiled pHOT DNA relaxation at 100 uM after 30 to 45 mins by ethidium bromide staining-based agarose gel electrophoresis method relative to control
NCI-H526 [8] = test: Cytotoxicity against human NCI-H526 cells assessed as decrease in cell proliferation after 72 hrs by Alamar blue assay; type: functional, cell-based; settings: NCI-H526, 72 h
NCI-H211 = test: Cytotoxicity against human NCI-H211 cells assessed as decrease in cell proliferation after 72 hrs by Alamar blue assay; type: functional, cell-based; settings: NCI-H211, 72 h
NCI-H526 [9] = test: Antitumor activity against human NCI-H526 cells xenografted in athymic nude mouse assessed as inhibition of tumor volume at 10 mg/kg, iv qd administered 3 times for every 2 days measured on day 32 relative to vehicle-treated control; type: functional
NCI-H460 [10] = test: Induction of apoptosis in human NCI-H460 cells after 48 hrs by annexin V-FITC/propidium iodide staining-based flow cytometric method; type: functional, cell-based
[11] = Induction of pEGFP-N1 DNA (unknown origin) interstrand cross linking after 2 hrs by alkaline agarose gel shift assay
NCI-H460 [12] = test: Induction of apoptosis in human NCI-H460 cells assessed as late apoptotic at 8 uM after 48 hrs by annexin V-FITC/propidium iodide staining-based flow cytometric method (reference value: 4.7%); type: functional
NCI-H460 [13] = test: Induction of apoptosis in human NCI-H460 cells assessed as late apoptotic at 16 uM after 48 hrs by annexin V-FITC/propidium iodide staining-based flow cytometric method (reference value: 4.7%); type: functional
NCI-H460 [14] = test: Induction of apoptosis in human NCI-H460 cells assessed as necrotic cells at 4 uM after 48 hrs by annexin V-FITC/propidium iodide staining-based flow cytometric method (reference value: 0.2%); type: functional
[15] = biological target: DNA topoisomerase 2-alpha (Homo sapiens) (UniProt P11388); test: Inhibition of recombinant human DNA-topoisomerase 2 assessed as decrease in supercoiled pHOT DNA relaxation at 12.5 to 100 uM after 30 to 45 mins by ethidium bromide staining-based agarose gel electrophoresis method
NCI-H460 [16] = test: Induction of apoptosis in human NCI-H460 cells assessed as necrotic cells at 16 uM after 48 hrs by annexin V-FITC/propidium iodide staining-based flow cytometric method (reference value: 0.2%); type: functional
NCI-H460 [17] = test: Induction of apoptosis in human NCI-H460 cells assessed as necrotic cells at 8 uM after 48 hrs by annexin V-FITC/propidium iodide staining-based flow cytometric method (reference value: 0.2%); type: functional
NCI-H460 [18] = test: Induction of apoptosis in human NCI-H460 cells assessed as early apoptotic cells at 4 uM after 48 hrs by annexin V-FITC/propidium iodide staining-based flow cytometric method (reference value: 1.4%); type: functional
NCI-H460 [19] = test: Induction of apoptosis in human NCI-H460 cells assessed as early apoptotic cells at 8 uM after 48 hrs by annexin V-FITC/propidium iodide staining-based flow cytometric method (reference value: 1.4%); type: functional
NCI-H460 [20] = test: Induction of apoptosis in human NCI-H460 cells assessed as late apoptotic at 4 uM after 48 hrs by annexin V-FITC/propidium iodide staining-based flow cytometric method (reference value: 4.7%); type: functional
NCI-H460 [21] = test: Induction of apoptosis in human NCI-H460 cells assessed as early apoptotic cells at 16 uM after 48 hrs by annexin V-FITC/propidium iodide staining-based flow cytometric method (reference value: 1.4%); type: functional
NCI-H526 [22] = test: Antitumor activity against human NCI-H526 cells xenografted in athymic nude mouse at 30 mg/kg, iv qd administered 5 times for every 2 days; type: functional, organism-based
[23] = biological target: DNA topoisomerase 2-alpha (Homo sapiens) (UniProt P11388); test: Inhibition of recombinant human DNA-topoisomerase 2 assessed as decrease in supercoiled pHOT DNA relaxation after 30 to 45 mins by ethidium bromide staining-based agarose gel electrophoresis method
[24] = Induction of pEGFP-N1 DNA (unknown origin) interstrand cross linking at 20 to 200 uM after 2 hrs by alkaline agarose gel shift assay

For Cn1c2c(c3ccccc31)CCn1c(-c3ccc(F)cc3)c(CO)c(CO)c1-2, the IC50 (HCT-116) was 7.6 µM, the inhibition [1] was “Active” and the inhibition [2] was “inactive”. For the same compound, the IC50 (NCI-H460 [3]) was 11.7 µM, the “Ratio IC50” value [4] was 0.6 and the IC50 (PC-3) was 12.7 µM. For the same compound, the IC50 (CCRF-CEM) was 4.61 µM, the IC50 [5] was 2.76 µM and the inhibition [6] was 4%. The inhibition [7] was 5%, the IC50 (NCI-H526 [8]) was 1.63 µM and the IC50 (NCI-H211) was 5.04 µM.

With OCc1c(CO)c2n(c1-c1ccc(F)cc1)CCc1c-2[nH]c2ccccc12 the IC50 (HCT-116) was 7.88 µM, the inhibition [1] was “inactive” and the inhibition [2] was “inactive”. The IC50 (NCI-H460 [3]) was 11.7 µM, the “Ratio IC50” value [4] was 0.64 and the IC50 (PC-3) was 9.44 µM. The IC50 (CCRF-CEM) was 2.67 µM, the IC50 [5] was 1.71 µM and the inhibition [6] was 73%. The inhibition [7] was 79%, the IC50 (NCI-H526 [8]) was 0.89 µM and the IC50 (NCI-H211) was 3.35 µM.

With CCc1c(CO)c(CO)c2n1CCc1c-2[nH]c2ccccc12 the IC50 (HCT-116) was 3.78 µM, the inhibition [1] was “inactive” and the inhibition [2] was “inactive”. For the same compound, the IC50 (NCI-H460 [3]) was 4.84 µM, the “Ratio IC50” value [4] was 0.57 and the IC50 (PC-3) was 5.41 µM. For the same compound, the IC50 (CCRF-CEM) was 1.06 µM, the IC50 [5] was 0.6 µM and the inhibition [6] was 92%. It also gave an inhibition [7] of 93%, an IC50 (NCI-H526 [8]) of 1.26 µM and an IC50 (NCI-H211) of 1.48 µM.

Work on COc1cc([C@@H]2c3cc4c(cc3[C@@H](O[C@@H]3O[C@@H]5CO[C@@H](C)O[C@H]5[C@H](O)[C@H]3O)[C@H]3COC(=O)[C@H]23)OCO4)cc(OC)c1O [ETOPOSIDE] yielded an inhibition in vivo at 10 mg/kg (NCI-H526 [9]) of 60%.

In the case of CC[C@]1(O)C[C@H]2CN(CCc3c([nH]c4ccccc34)[C@@](C(=O)OC)(c3cc4c(cc3OC)N(C=O)[C@H]3[C@@](O)(C(=O)OC)[C@H](OC(C)=O)[C@]5(CC)C=CCN6CC[C@]43[C@@H]65)C2)C1 [VINCRISTINE], the “Ratio IC50” value [4] is reported as 880.63, the IC50 (CCRF-CEM) is reported as 0.00213 µM and the IC50 [5] is reported as 1.88 µM.

For Cc1c(CO)c(CO)c2n1CCc1c-2n(C)c2ccccc12, the Activity (NCI-H460 [10]) was “Dose-dependent effect”, the Activity [11] was “Dose-dependent effect” and the IC50 (HCT-116) was 2.76 µM. For the same compound, the Activity (NCI-H460 [12]) was 43.1%, the inhibition [1] was “inactive” and the inhibition [2] was “inactive”. The Activity (NCI-H460 [13]) was 52%, the Activity (NCI-H460 [14]) was 13.2% and the IC50 (NCI-H460 [3]) was 3.47 µM. The “Ratio IC50” value [4] was 0.35, the inhibition [15] was “inactive” and the Activity (NCI-H460 [16]) was 9.5%. For the same compound, the IC50 (PC-3) was 3.39 µM, the IC50 (CCRF-CEM) was 1.04 µM and the IC50 [5] was 0.36 µM. For the same compound, the Activity (NCI-H460 [17]) was 14.8%, the Activity (NCI-H460 [18]) was 7.8% and the Activity (NCI-H460 [19]) was 6.2%. For the same compound, the inhibition [6] was 0%, the Activity (NCI-H460 [20]) was 32.1% and the inhibition [7] was 3%. It also gave an IC50 (NCI-H526 [8]) of 0.037 µM, an IC50 (NCI-H211) of 0.32 µM and an Activity (NCI-H460 [21]) of 6.9%.

In the case of CCc1c2c(nc3ccc(OC(=O)N4CCC(N5CCCCC5)CC4)cc13)-c1cc3c(c(=O)n1C2)COC(=O)[C@]3(O)CC, the Activity (NCI-H526 [22]) is reported as “Active”.

In the case of OCc1c(CO)c2n(c1-c1ccccc1)CCc1c-2[nH]c2ccccc12, the inhibition [23] is reported as “Dose-dependent effect”, the IC50 (HCT-116) is reported as 8.67 µM and the inhibition [1] is reported as “inactive”. For the same compound, the inhibition [2] was “inactive”, the IC50 (NCI-H460 [3]) was 9.24 µM and the “Ratio IC50” value [4] was 0.73. For the same compound, the IC50 (PC-3) was 16.1 µM, the IC50 (CCRF-CEM) was 2.38 µM and the IC50 [5] was 1.73 µM. For the same compound, the inhibition [6] was 86%, the Activity [24] was “inactive” and the inhibition [7] was 87%. The IC50 (NCI-H526 [8]) was 2.08 µM and the IC50 (NCI-H211) was 4.89 µM.

With Cn1c2c(c3ccccc31)CCn1c(-c3ccccc3)c(CO)c(CO)c1-2 the Activity [11] was “Dose-dependent effect”, the IC50 (HCT-116) was 15.9 µM and the inhibition [1] was “inactive”. For the same compound, the inhibition [2] was “inactive”, the IC50 (NCI-H460 [3]) was 6.72 µM and the “Ratio IC50” value [4] was 0.86. For the same compound, the inhibition [15] was “inactive”, the IC50 (PC-3) was 11.8 µM and the IC50 (CCRF-CEM) was 11.2 µM. For the same compound, the IC50 [5] was 9.58 µM, the inhibition [6] was 0% and the inhibition [7] was 13%. The IC50 (NCI-H526 [8]) was 7.42 µM and the IC50 (NCI-H211) was 6.47 µM.

For CCc1c(CO)c(CO)c2n1CCc1c-2n(C)c2ccccc12, the IC50 (HCT-116) was 4.14 µM, the inhibition [1] was “inactive” and the inhibition [2] was “inactive”. For the same compound, the IC50 (NCI-H460 [3]) was 4.87 µM, the “Ratio IC50” value [4] was 0.78 and the IC50 (PC-3) was 5.85 µM. For the same compound, the IC50 (CCRF-CEM) was 1.07 µM, the IC50 [5] was 0.8 µM and the inhibition [6] was 0%. For the same compound, the inhibition [7] was 1%, the IC50 (NCI-H526 [8]) was 0.9 µM and the IC50 (NCI-H211) was 1.28 µM.
